Measured values: US20230014962A1, “Quinoline compound and use thereof” (SKYRUN PHARMA CO., LTD., priority 2019, published 2023)

Columns and labels:
[1] = biological target: T1, FGFR4 (Homo sapiens, UniProt P22455); assay: Determination of FGFR4 inhibitory activity by fluorescence resonance energy transfer (FRET) method; format: biochemical; settings: FGFR4 from purchased kit, read-out: In vitro FGFR4 kinase inhibitory activity IC50
T1 construct: purchased
Text: 1. Determination of FGFR4 Inhibitory Activity of Target Compound
FGFR4 is obtained by direct purchase of a kit.

[2] = tested on: Hep3B cell; assay: Determination of Hep3B cell inhibitory activity (Cell Titer-Glo, 72 h); format: cell-based; settings: Hep3B cells, 72 h incubation, Cell Titer-Glo (CTG) method
Text: 2. Determination of Hep3B Cell Inhibitory Activity of Target Compound

T1 sequence (P22455 22-802): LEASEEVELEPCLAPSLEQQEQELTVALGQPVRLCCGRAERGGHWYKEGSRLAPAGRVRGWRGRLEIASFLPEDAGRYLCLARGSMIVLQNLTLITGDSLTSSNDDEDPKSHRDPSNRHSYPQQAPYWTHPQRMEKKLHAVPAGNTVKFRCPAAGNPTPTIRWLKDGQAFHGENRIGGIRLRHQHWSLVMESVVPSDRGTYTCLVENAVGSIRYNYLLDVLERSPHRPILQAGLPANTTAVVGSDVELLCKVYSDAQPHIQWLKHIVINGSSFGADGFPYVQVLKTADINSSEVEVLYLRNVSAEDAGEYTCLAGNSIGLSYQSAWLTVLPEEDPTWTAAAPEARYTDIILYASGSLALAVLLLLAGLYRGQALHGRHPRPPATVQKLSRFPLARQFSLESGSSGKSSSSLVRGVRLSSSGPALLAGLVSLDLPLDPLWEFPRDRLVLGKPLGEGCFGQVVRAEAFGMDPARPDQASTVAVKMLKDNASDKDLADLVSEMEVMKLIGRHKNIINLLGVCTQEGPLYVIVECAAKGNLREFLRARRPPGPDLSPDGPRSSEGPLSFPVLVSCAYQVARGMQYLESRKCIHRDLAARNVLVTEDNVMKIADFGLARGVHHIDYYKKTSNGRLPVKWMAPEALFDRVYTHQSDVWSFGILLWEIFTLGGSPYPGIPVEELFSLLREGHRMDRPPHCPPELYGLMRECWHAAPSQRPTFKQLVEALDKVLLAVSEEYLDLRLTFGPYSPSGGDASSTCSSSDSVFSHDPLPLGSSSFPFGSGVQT

Row | Compound | IC50 [1] | IC50 ([2]; Homo sapiens) | IC50 [2]
1 | C=CC(=O)N1CC=C(c2cc3c(Oc4ccc(NC(=O)NC5CC5)c(F)c4)ccnc3cc2OC)CC1 [Compound I-19, 4-[3-fluoro-4-(cyclopropylaminocarbonyl)aminophenoxy]-6-[(1-acryloyl-1,2,3,6-tetrahydropyridine)-4-yl]-7-methoxyquinoline] | < 0.002 µM | < 0.05 µM | –
2 | C=CC(=O)N1CC=C(c2cc3c(Oc4ccc(NC(=O)NC5CC5)c(Cl)c4)ccnc3cc2OCCN2CCOCC2)CC1 [Compound I-14] | < 0.005 µM | < 0.1 µM | –
3 | 4-[2,6-dichloro-4-(cyclopropylaminocarbonyDaminobenzeneamino]-6-[(1-acryloyl-1,2,3,6-tetrahydropyridine)-4-yl]-7-methoxyquinoline [Compound I-27] | < 0.005 µM | – | < 0.5 µM
4 | 4-[3-chloro-4-(cyclopropylaminocarbonyl)aminophenoxy]-6-[(1-acryloyl-piperidine)-4-yl]-7-methoxyquinoline [Compound I-8] | < 0.002 µM | – | < 0.05 µM
5 | C=CC(=O)N1CC=C(c2cc3c(Oc4ccc(NC(=O)NC5CC5)c(Cl)c4)ccnc3cc2OC2CCCC2)CC1 [Compound I-12] | < 0.005 µM | < 0.1 µM | –
6 | 4-[3-chloro-4-(cyclopentylaminocarbonyl)aminophenoxy]-6-[(1-acryloyl-1,2,3,6-tetrahydropyridine)-4-yl]1-7-methoxyquinoline [Compound I-9] | < 0.005 µM | – | < 0.1 µM
7 | COc1cc2nccc(Oc3ccc(NC(=O)NC4CC4)c(Cl)c3)c2cc1C(N)=O [Lenvatinib, reference compound] | 0.043 µM | < 0.5 µM | –
8 | C=CC(=O)N1CC=C(c2cc3c(Oc4ccc(NC(=O)NC5CC5)cc4F)ccnc3cc2OC)CC1 [Compound I-18, 4-[2-fluoro-4-(cyclopropylaminocarbonyl)aminophenoxy]-6[(1-acryloyl-1,2,3,6-tetrahydropyridine)-4-yl]-7-methoxyquinoline] | < 0.005 µM | – | < 0.05 µM
9 | C=CC(=O)N1CC=C(c2cc3c(Sc4ccc(NC(=O)NC5CC5)c(Cl)c4)ccnc3cc2OC)CC1 [Compound I-25, 4-[3-chloro-4-(cyclopropylaminocarbonyl)aminophenylmercapto]-6-[(1-acryloyl-1,2,3,6-tetrahydropyridine)-4-yl]-7-methoxyquinoline] | < 0.005 µM | < 0.1 µM | –
10 | C=CC(=O)N1CC=C(c2cc3c(Nc4ccc(NC(=O)NC5CC5)c(Cl)c4)ccnc3cc2OC)CC1 [Compound I-26, 4-[3-chloro-4-(cyclopropylaminocarbonyl)aminophenylamino]-6-[(1-acryloyl-1,2,3,6-tetrahydropyridine)-4-yl]-7-methoxyquinoline] | < 0.005 µM | < 0.5 µM | –
11 | 4-[3-chloro-4-cyclohexanecarbonylaminophenoxy]-6-[(1-chloroyl-1,2,3,6-tetrahydropyridine)-4-yl]-7-methoxyquinoline [Compound I-7] | < 0.002 µM | – | < 0.05 µM
12 | 4-[3-chloro-4-(cyclopropylaminocarbonyl)aminophenoxy]-6-[(1-acryloyl-1,2,3,6-tetrahydropyridine)-4-yl]-7-ethylquinoline [Compound I-13] | < 0.002 µM | – | < 0.05 µM
13 | C=CC(=O)N1CCC(c2cc3c(Oc4ccc(NC(=O)NC5CC5)c(Cl)c4)ccnc3cc2OC)C1 (centres unmarked) [Compound I-23, 4-[3-chloro-4-(cyclopropylaminocarbonyl)aminophenoxy]-6-[(1-acryloyl-tetrahydropyrrole)-3-yl]-7-methoxyquinoline] | < 0.005 µM | < 0.5 µM | –
14 | C=CS(=O)(=O)N1CC=C(c2cc3c(Oc4ccc(NC(=O)NC5CC5)c(Cl)c4)ccnc3cc2OC)CC1 [Compound I-3, 4-[3-chloro-4-(cyclopropylaminocarbonyl)aminophenoxyl]-6-[(1-ethylenesulfonyl-1,2,3,6-tetrahydropyridine)-4-yl]-7-methoxyquinoline] | < 0.005 µM | < 0.1 µM | –
15 | 4-[3-chloro-4-(cyclopropylaminocarbonyl)aminophenoxy]-6-[(1-acryloyl-1,2,3,6-tetrahydropyridine)-4-yl]-7-methoxyquinoline [Compound I-1] | < 0.002 µM | – | < 0.05 µM
16 | 4-[3-chloro-4-(cyclopropylaminocarbonyl)aminophenoxy]-6-[(1-diethylphosphorylacetyl-1,2,3,6-tetrahydropyridine)-4-yl]-7-methoxyquinoline [Compound I-2] | < 0.005 µM | – | < 0.1 µM
17 | C=CC(=O)Nc1cccc(C)c1Nc1ncc2cc(-c3c(Cl)c(OC)cc(OC)c3Cl)ccc2n1 [Blu9931, reference compound] | – | 0.174 µM | –
18 | 4-[3-chloro-4-cyclopropanecarboxylaminophenoxy]-6-[(1-chloroyl-1,2,3,6-tetrahydropyridine)-4 -yl]-7-methoxyquinoline [Compound I-5] | < 0.005 µM | – | < 0.1 µM
19 | C=CC(=O)N1CCC=C(c2cc3c(Oc4ccc(NC(=O)NC5CC5)c(Cl)c4)ccnc3cc2OC)C1 [Compound I-21, 4-[3-chloro-4-(cyclopropylaminocarbonyl)aminophenoxy]-6-[(1-acryloyl-1,2,5,6-tetrahydropyridine)-3-yl]-7-methoxyquinoline] | < 0.005 µM | < 0.5 µM | –
20 | 4-[3-chloro-4-(cyclopropylaminocarbonyl)aminophenoxy]-6-[(1-chloroyl-1,2,3,6-tetrahydropyridine)-4-yl]-7-methoxyquinoline [Compound I-4] | < 0.005 µM | – | < 0.1 µM

Further lines, with some results ahead:

Row | IC50 [1] | IC50 ([2]; Homo sapiens) | Compound | IC50 [2]
21 | < 0.005 µM | < 0.05 µM | C=CC(=O)N1CC=C(c2cc3c(Oc4ccc(NC(=O)NC(C)(C)C)c(Cl)c4)ccnc3cc2OC)CC1 [Compound I-16, 4-[3-chloro-4-(tert-butylaminocarbonyl)aminophenoxy]-6-[(1-acryloyl-1,2,3,6-tetrahydropyridine)-4-yl]-7-methoxyquinoline] | –
22 | < 0.005 µM | < 0.1 µM | C=CC(=O)N1CC=C(c2cc3c(Oc4ccc(NC(=O)NC5CC5)c(Cl)c4)ccnc3cc2OC)C1 [Compound I-22, 4-[3-chloro-4-(cyclopropylaminocarbonyl)aminophenoxy]-6-[(1-acryloyl-2,5-dihydropyrrole)-3-yl]-7-methoxyquinoline] | –
23 | – | < 0.05 µM | C=CC(=O)N1CC=C(c2cc3c(Oc4ccc(NC(=O)NC5CCCCC5)c(Cl)c4)ccnc3cc2OC)CC1 [Compound I-15, 4-[3-chloro-4-(cyclohexylaminocarbonyl)aminophenoxy]-6-[(1-acryloyl-1,2,3,6-tetrahydropyridine)-4-yl]-7-methoxyquinoline] | –
24 | < 0.002 µM | < 0.05 µM | C=CC(=O)N1CC=C(c2cc3c(Oc4ccc(C(=O)NC5CC5)c(Cl)c4)ccnc3cc2OC)CC1 [Compound I-24, 4-[3-chloro-4-(cyclopropylamino)carbonylphenoxy]-6-[(1-acryloyl-1,2,3,6-tetrahydropyridine)-4-yl]-7-methoxyquinoline] | –
25 | < 0.002 µM | < 0.05 µM | C=CC(=O)N1CC=C(c2cc3c(Oc4ccc(NC(=O)NC5CC5)c(Cl)c4)ccnc3cc2OC(C)C)CC1 [Compound I-11, 4-[3-chloro-4-(cyclopropylaminocarbonyl)aminophenoxy]-6-[(1-acryloyl-1,2,3,6-tetrahydropyridine)-4-yl]-7-isopropylquinoline] | –
26 | < 0.005 µM | < 0.1 µM | C=CC(=O)N1CC=C(c2cc3c(Oc4ccc(NC(=O)NC5CC5)c(Cl)c4)ccnc3cc2OCc2ccccc2)CC1 [Compound I-10] | –
27 | < 0.005 µM | < 0.1 µM | C=CC(=O)N1CC=C(c2cc3c(Oc4ccc(NC(=O)C5CCCC5)c(Cl)c4)ccnc3cc2OC)CC1 [Compound I-6] | –
28 | < 0.002 µM | < 0.05 µM | C=CC(=O)N1CC=C(c2cc3c(Oc4ccc(NC(=O)Nc5ccccc5)c(Cl)c4)ccnc3cc2OC)CC1 [Compound I-17, 4-[3-chloro-4-(phenylaminocarbonyl)aminophenoxy]-6-[(1-acryloyl-1,2,3,6-tetrahydropyridine)-4-yl]-7-methoxyquinoline] | –
29 | < 0.005 µM | < 0.5 µM | C=CC(=O)N1CC=C(c2cc3c(Oc4ccc(NC(=O)NC5CC5)cc4)ccnc3cc2OC)CC1 [Compound I-20, 4-[4-(cyclopropylaminocarbonyl)aminophenoxy]-6-[(1-acryloyl-1,2,3,6-tetrahydropyridine)-4-yl]-7-methoxyquinoline] | –
